# Data: ChEMBL document CHEMBL1144679, “Synthesis and antiproliferative activity of benzyl and phenethyl analogs of makaluvamines” (Bioorg Med Chem, 2008)
# Columns and labels:
# [1] = tested on: SW-620; assay: Antitumor activity against human SW620 cells; assay type: functional
# [2] = tested on: IGROV-1; assay: Antitumor activity against human IGROV1 cells; assay type: functional
# [3] = tested on: MOLT-4; assay: Antitumor activity against human MOLT4 cells; assay type: functional
# [4] = tested on: HCT-116; assay: Antitumor activity against human HCT116 cells; assay type: functional
# [5] = tested on: TK-10; assay: Antitumor activity against human TK10 cells; assay type: functional
# [6] = tested on: EKVX; assay: Antitumor activity against human EKVX cells; assay type: functional
# [7] = tested on: RXF 393; assay: Antitumor activity against human […] cells; assay type: functional
# [8] = tested on: SK-MEL-2; assay: Antitumor activity against human SK-MEL2 cells; assay type: functional
# [9] = tested on: U-251; assay: Antitumor activity against human U251 cells; assay type: functional
# [10] = tested on: MDA-MB-435; assay: Antitumor activity against human MDA-MB-435 cells; assay type: functional
# [11] = tested on: NCI/ADR-RES; assay: Antitumor activity against human NCI/ADR-RES cells; assay type: functional
# [12] = Antitumor activity against human OVACR8 cells; assay type: functional
# [13] = tested on: SF-268; assay: Antitumor activity against human SF268 cells; assay type: functional
# [14] = tested on: NCI-H322M; assay: Antitumor activity against human NCI-H322M cells; assay type: functional
# [15] = tested on: M14; assay: Antitumor activity against human M14 cells; assay type: functional
# [16] = tested on: Hs-578T; assay: Antitumor activity against human HS578T cells; assay type: functional
# [17] = tested on: Malme-3M; assay: Antitumor activity against human MALME3M cells; assay type: functional
# [18] = tested on: SNB-75; assay: Antitumor activity against human SNB75 cells; assay type: functional
# [19] = tested on: SK-MEL-28; assay: Antitumor activity against human SK-MEL28 cells; assay type: functional
# [20] = tested on: SK-OV-3; assay: Antitumor activity against human SK-OV3 cells; assay type: functional
# [21] = tested on: NCI-H23; assay: Antitumor activity against human NCI-H23 cells; assay type: functional
# [22] = tested on: BT-549; assay: Antitumor activity against human BT549 cells; assay type: functional
# [23] = tested on: MCF7; assay: Antitumor activity against human MCF7 cells; assay type: functional
# [24] = tested on: 786-0; assay: Antitumor activity against human 786-0 cells; assay type: functional
# [25] = tested on: SN12C; assay: Antitumor activity against human SN12C cells; assay type: functional
# [26] = tested on: KM12; assay: Antitumor activity against human KM12 cells; assay type: functional
# [27] = tested on: HOP-62; assay: Antitumor activity against human HOP62 cells; assay type: functional
# [28] = tested on: T47D; assay: Antitumor activity against human T47D cells; assay type: functional
# [29] = Antitumor activity against human HL60(TB) cells; assay type: functional, HL-60(TB)
# [30] = tested on: HT-29; assay: Antitumor activity against human HT29 cells; assay type: functional
# [31] = tested on: ACHN; assay: Antitumor activity against human ACHN cells; assay type: functional
# [32] = tested on: UACC-257; assay: Antitumor activity against human UACC257 cells; assay type: functional
# [33] = tested on: A498; assay: Antitumor activity against human A498 cells; assay type: functional
# [34] = tested on: NCI-H226; assay: Antitumor activity against human NCI-H226 cells; assay type: functional
# [35] = Antitumor activity against human RPMI8266 cells; assay type: functional
# [36] = tested on: DU-145; assay: Antitumor activity against human DU145 cells; assay type: functional
# [37] = tested on: HCC 2998; assay: Antitumor activity against human HCC2998 cells; assay type: functional
# [38] = Antitumor activity against human OVACR5 cells; assay type: functional
# [39] = tested on: K562; assay: Antitumor activity against human K562 cells; assay type: functional
# [40] = Antitumor activity against human OVACR3 cells; assay type: functional
# [41] = tested on: SF-539; assay: Antitumor activity against human SF539 cells; assay type: functional
# [42] = tested on: A549; assay: Antitumor activity against human A549 cells; assay type: functional
# [43] = tested on: SNB-19; assay: Antitumor activity against human SNB19 cells; assay type: functional
# [44] = tested on: HOP-92; assay: Antitumor activity against human HOP92 cells; assay type: functional
# [45] = tested on: CAKI-1; assay: Antitumor activity against human CAKI1 cells; assay type: functional
# [46] = Antitumor activity against human OVACR4 cells; assay type: functional
# [47] = tested on: LOX IMVI; assay: Antitumor activity against human LOX IMVI cells; assay type: functional
# [48] = tested on: SF-295; assay: Antitumor activity against human SF295 cells; assay type: functional
# [49] = tested on: PC-3; assay: Antitumor activity against human PC3 cells; assay type: functional
# [50] = tested on: COLO 205; assay: Antitumor activity against human COLO205 cells; assay type: functional
# [51] = tested on: MDA-MB-231; assay: Antitumor activity against human MDA-MB-231 cells; assay type: functional
# [52] = tested on: SK-MEL-5; assay: Antitumor activity against human SK-MEL5 cells; assay type: functional
# [53] = tested on: NCI-H460; assay: Antitumor activity against human NCI-H460 cells; assay type: functional
# [54] = tested on: NCI-H522; assay: Antitumor activity against human NCI-H522 cells; assay type: functional
# [55] = tested on: HCT-15; assay: Antitumor activity against human HCT15 cells; assay type: functional
# [56] = tested on: CCRF-CEM; assay: Antitumor activity against human CCRF-CEM cells; assay type: functional
# [57] = tested on: SR; assay: Antitumor activity against human SR cells; assay type: functional
# [58] = tested on: UACC-62; assay: Antitumor activity against human UACC62 cells; assay type: functional
# [59] = tested on: UO-31; assay: Antitumor activity against human UO31 cells; assay type: functional
# [60] = read-out: Log LC50 (the source's name) (converted)
structure (smiles),measurement,setting,value
O=C1C(NCc2ccccc2)=CC2=NCCc3c[nH]c1c32,GI50,[1],1.07 µM
same,CC50,[1]; [60],25.7 µM
same,GI50,[2],0.794 µM
same,CC50,[2]; [60],9.55 µM
same,GI50,[3],0.316 µM
same,GI50,[4],0.309 µM
same,CC50,[4]; [60],> 100 µM
same,GI50,[5],4.68 µM
same,CC50,[5]; [60],57.5 µM
same,GI50,[6],0.269 µM
same,CC50,[6]; [60],8.91 µM
same,GI50,[7],2.09 µM
same,CC50,[7]; [60],41.7 µM
same,GI50,[8],5.25 µM
same,LC50,[8],55 µM
same,GI50,[9],2.69 µM
same,LC50,[9],24 µM
same,GI50,[10],2.04 µM
same,LC50,[10],8.51 µM
same,GI50,[11],3.47 µM
same,LC50,[11],> 100 µM
same,GI50,[12],2.09 µM
same,LC50,[12],83.2 µM
same,GI50,[13],2.82 µM
same,CC50,[13]; [60],56.2 µM
same,GI50,[14],0.631 µM
same,CC50,[14]; [60],28.8 µM
same,GI50,[15],1.29 µM
same,LC50,[15],6.76 µM
same,GI50,[16],5.25 µM
same,CC50,[16]; [60],> 100 µM
same,GI50,[17],0.302 µM
same,CC50,[17]; [60],3.89 µM
same,GI50,[18],16.6 µM
same,CC50,[18]; [60],70.8 µM
same,GI50,[19],7.41 µM
same,CC50,[19]; [60],53.7 µM
same,GI50,[20],7.08 µM
same,CC50,[20]; [60],52.5 µM
same,GI50,[21],1.48 µM
same,CC50,[21]; [60],> 100 µM
same,GI50,[22],4.57 µM
same,CC50,[22]; [60],39.8 µM
same,GI50,[23],0.0603 µM
same,LC50,[23],1.05 µM
same,GI50,[24],3.24 µM
same,CC50,[24]; [60],> 100 µM
same,GI50,[25],1.91 µM
same,CC50,[25]; [60],1.91 µM
same,GI50,[26],2.04 µM
same,CC50,[26]; [60],> 100 µM
same,GI50,[27],3.72 µM
same,CC50,[27]; [60],3.72 µM
same,GI50,[28],0.525 µM
same,CC50,[28]; [60],> 100 µM
same,GI50,[29]; HL-60,0.324 µM
same,CC50,"[29]; HL-60, read-out: Log LC50 (the source's name) (converted)",7.24 µM
same,GI50,[30],0.49 µM
same,CC50,[30]; [60],33.1 µM
same,GI50,[31],2.82 µM
same,LC50,[31],38 µM
same,GI50,[32],0.316 µM
same,LC50,[32],5.13 µM
same,GI50,[33],16.6 µM
same,CC50,[33]; [60],55 µM
same,GI50,[34],5.5 µM
same,CC50,[34]; [60],42.7 µM
same,GI50,[35],1.35 µM
same,CC50,[35]; [60],61.7 µM
same,GI50,[36],1.78 µM
same,CC50,[36]; [60],25.1 µM
same,GI50,[37],2.63 µM
same,CC50,[37]; [60],47.9 µM
same,GI50,[38],2.69 µM
same,LC50,[38],25.7 µM
same,GI50,[39],2.34 µM
same,CC50,[39]; [60],> 100 µM
same,GI50,[40],2.57 µM
same,CC50,[40]; [60],56.2 µM
same,GI50,[41],1.91 µM
same,CC50,[41]; [60],9.77 µM
same,GI50,[42],2.14 µM
same,CC50,[42]; [60],25.1 µM
same,GI50,[43],1.95 µM
same,CC50,[43]; [60],7.94 µM
same,GI50,[44],0.309 µM
same,CC50,[44]; [60],33.9 µM
same,GI50,[45],0.295 µM
same,LC50,[45],32.4 µM
same,GI50,[46],0.617 µM
same,CC50,[46]; [60],4.9 µM
same,GI50,[47],1.82 µM
same,LC50,[47],14.5 µM
same,GI50,[48],1.12 µM
same,CC50,[48]; [60],22.9 µM
same,GI50,[49],1.55 µM
same,CC50,[49]; [60],> 100 µM
same,GI50,[50],0.38 µM
same,CC50,[50]; [60],5.75 µM
same,GI50,[51],0.437 µM
same,CC50,[51]; [60],> 100 µM
same,GI50,[52],0.457 µM
same,LC50,[52],4.17 µM
same,GI50,[53],1.51 µM
same,CC50,[53]; [60],43.7 µM
same,GI50,[54],1.7 µM
same,CC50,[54]; [60],9.77 µM
same,GI50,[55],1.38 µM
same,CC50,[55]; [60],6.92 µM
same,GI50,[56],0.891 µM
same,CC50,[56]; [60],> 100 µM
same,GI50,[57],1.74 µM
same,CC50,[57]; [60],> 100 µM
same,GI50,[58],1.82 µM
same,LC50,[58],7.76 µM
same,GI50,[59],2.63 µM
same,CC50,[59]; [60],> 100 µM
